Test results as given in PMC10564737, “Structure-based design of a phosphotyrosine-masked covalent ligand targeting the E3 ligase SOCS2” (Nature Communications, 2023).
Values joined by “and” are separate entries in the source; they are usually repeats but may differ in a detail not shown here. Equal values may be shown once.

Columns and labels:
SOCS6-EloBC (SBC6) = biological target: T1, SOCS6-EloBC (SBC6) (Homo sapiens, UniProt O14544); assay: Intact ESI-MS of recombinant protein, covalent modification; assay type: biochemical; conditions: SOCS6 + MN551 (1:1, 40 µM)
T1 construct: SOCS6 (amino acids 353-535); His6-GST (N, cleaved yes); made in house; E. coli implied
Excerpt: Having established the specificity of MN551 for covalent modification of Cys111 of SOCS2, we turned our attention to the intra-SOCS family selectivity of MN551. We performed a multiple sequence alignment of the SH2 domains from all the SOCS proteins (Fig. 3a). The Cys111 targeted by MN551 for covalency is part of the EF loop in SOCS2. Beyond SOCS2, other family members SOCS4, SOCS5, SOCS7, and CISH also have a cysteine in the same loop (Fig. 3a), and given the expected conserved ligand binding mode, they could all be engaged by MN551. To verify our hypothesis, we incubated recombinant SOCS/EloBC complexes of SOCS4 (SBC4), SOCS6 (SBC6), and CISH with MN551 for 2 h and analyzed for covalent modification of the SOCS proteins by intact ESI-MS (Fig. 3b–d). These proteins were chosen as SOCS4 and SOCS6 are already structurally well characterized, and because SOCS4 Cys350, and CISH Cys144 are in a similar position as Cys111 in SOCS2, whereas SOCS6 is lacking cysteines in the EF loop[36]–[38]. […] Although SOCS6 lacks a cysteine in its EF loop, Cys471 from the BG loop is predicted to be in close proximity to the chloroacetamide functional group of MN551, as evident from the superposed SOCS2 and SOCS6 structures, potentially explaining the modification, albeit minimal (Fig. 3f). Structure-guided improvements upon this observed MN551-SOCS6 covalency could expedite future attempts in development of covalent binders for SOCS6. In the absence of a PDB structure for CISH, we overlayed SOCS2-SH2 domain with an AlphaFold model generated for the CISH SH2 domain with deletions in the N-terminus and the PEST sequence (66-258, Δ174-202, Fig. 3g). Amongst all the SOCSs, CISH has the highest sequence identity to SOCS2-SH2 and the presence of a conserved Cys144 in the EF loop together likely explain its complete covalent modification by MN551.
SBC2 protein (40 µM), SBC2 C111S, SBC4, SBC6, or CISH were incubated with an equimolar concentration of MN551 in 50 mM Tris, pH 8.0, 50 mM NaCl, 1 mM TCEP. At defined time points 20 µl samples were removed and the protein precipitated by the addition of 80 µl methanol. The precipitated protein was pelleted by centrifugation, washed with 500 µl methanol, and resuspended in an aqueous solution of 15% acetonitrile and 1% TFA. Samples were separated by HPLC on a C3 column using a 10–75% gradient of acetonitrile and analyzed using an Agilent 6130 quadrupole MS. Spectra were deconvoluted and integrated using Agilent LC/MSD ChemStation.

SOCS2 (SBC2) = biological target: T2, SOCS2 (SBC2) (Homo sapiens, UniProt O14508); assay: as above; assay type: biochemical; conditions: SOCS2 WT + MN551 (1:1, 40 µM)
T2 construct: SOCS2 (amino acids 32–198); His6 (N, cleaved yes); made in house; host or cells: E. coli BL21(DE3)
T2 sequence (O14508 32-198): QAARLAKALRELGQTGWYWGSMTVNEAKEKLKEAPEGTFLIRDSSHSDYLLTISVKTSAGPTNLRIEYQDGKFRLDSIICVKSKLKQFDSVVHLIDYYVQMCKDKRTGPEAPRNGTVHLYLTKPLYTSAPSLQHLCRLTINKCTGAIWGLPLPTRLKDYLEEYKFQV
T2 sequence (Q15369 17-112, further chain): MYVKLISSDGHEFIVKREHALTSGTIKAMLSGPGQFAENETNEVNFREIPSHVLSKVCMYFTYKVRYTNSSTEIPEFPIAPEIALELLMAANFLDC
T2 sequence (Q15370 1-104, further chain): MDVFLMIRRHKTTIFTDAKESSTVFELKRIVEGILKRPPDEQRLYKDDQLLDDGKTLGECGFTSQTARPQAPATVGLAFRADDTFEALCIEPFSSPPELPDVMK

T1 sequence (Q15370 1-104): as the sequence (Q15370 1-104, further chain) above
T1 sequence (O14544 353-535): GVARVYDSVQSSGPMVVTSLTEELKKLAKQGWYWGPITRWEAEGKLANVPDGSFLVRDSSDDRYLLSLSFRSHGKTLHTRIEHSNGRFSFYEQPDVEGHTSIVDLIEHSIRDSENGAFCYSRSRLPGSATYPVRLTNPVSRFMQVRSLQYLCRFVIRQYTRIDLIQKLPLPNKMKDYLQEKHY
T1 sequence (Q15369 17-112, further chain): as the sequence (Q15369 17-112, further chain) above

With `O=C(CCl)Nc1cccc(CNC(=O)[C@H](Cc2ccc(OP(=O)(O)O)cc2)NC(=O)Cc2ccc(F)cc2)c1` [MN551] the “% double-modified” value (SOCS6-EloBC (SBC6); 0 min) was 0.0%, the “% modified (single adduct)” value (SOCS6-EloBC (SBC6); 0 min) was 0.0% and the “% double-modified” value (SOCS6-EloBC (SBC6); 120 min) was 2.6%. The “% modified (single adduct)” value (SOCS6-EloBC (SBC6); 120 min) was 18% and 18.3%, the “% modified” value (SOCS2 (SBC2); t = 0 min) was 0.0% and the “% modified” value (SOCS2 (SBC2); t = 5 min) was 12.6%. The “% modified” value (SOCS2 (SBC2); t = 10 min) was 18.9%, the “% modified” value (SOCS2 (SBC2); t = 20 min) was 41.4% and the “% modified” value (SOCS2 (SBC2); t = 40 min) was 73.7%. The “% modified” value (SOCS2 (SBC2); t = 60 min) was 88.0%, the “% modified” value (SOCS2 (SBC2); t = 90 min) was 100.0% and the “% modified” value (SOCS2 (SBC2); t = 120 min) was 100.0%.
